Laboratory results reported in US20230085307A1, “PYRIDAZINONE COMPOUND AND HERBICIDE” (NISSAN CHEMICAL CORPORATION, priority 2019, published 2023).

Legend:
[1] = test system: Japanese bulrush; experiment: Test Example 1: herbicidal activity, application before weed generation under submerged conditions (Table 16, symbol B); format: in vivo, Japanese bulrush (Schoenoplectus juncoides); settings: amount of applied herbicide 320 g/ha
Summary of the method: (§1)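 Emulsion formulation, water-diluted to set dose, was put onto the flooded surface (4 cm depth, alluvial soil) the same day weeds were sown and 2.5-leaf rice transplanted. After 3 weeks at 25-30 °C under glass, each species was rated 0 (≤5% kill) to 5 (≥90% kill).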

[2] = test system: oval-leafed pondweed; experiment: Test Example 1: herbicidal activity, application before weed generation under submerged conditions (Table 16, symbol C); format: in vivo, oval-leafed pondweed (Monochoria vaginalis); settings: amount of applied herbicide 320 g/ha
Summary of the method: as §1

[3] = test system: Japanese bulrush; experiment: Test Example 2: herbicidal activity, application during weed generation under submerged conditions (Table 17, symbol B); format: in vivo, Japanese bulrush (Schoenoplectus juncoides); settings: AAH 320 g/ha; application during weed generation, submerged conditions
Summary of the method: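 Mixed weed seedlings in alluvial soil under a 4 cm water layer, greenhouse-grown at 25–30° C. Compound given as a diluted emulsion into the floodwater at the 1–2 leaf stage; response graded after three weeks.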

[4] = test system: rice flat sedge; experiment: Test Example 3: herbicidal effect by foliage application, Wagner pot (Table 18, symbol E); format: in vivo, rice flat sedge (Cyperus iria); settings: amount of applied herbicide 320 g/ha
Summary of the method: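 Plants were sown in alluvial soil held under 0.1–0.5 cm standing water and grown 14 days in a greenhouse at 25–30 °C. An emulsifiable formulation, water-diluted to the set dose, was then sprayed onto the foliage, and effects were scored three weeks later using previously defined criteria.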

[5] = test system: southern crabgrass; experiment: Test Example 4: herbicidal effect by soil treatment (Table 19, symbol F); format: in vivo, southern crabgrass (Digitaria ciliaris); settings: amount of applied herbicide 320 g/ha
Summary of the method: (§2)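 Step 1: sow seeds in sterilized diluvial soil, cover ~1.5 cm. Step 2: spray diluted emulsion onto soil surface at predetermined rate. Step 3: greenhouse, 25–30° C, three weeks. Step 4: grade effect on each plant by earlier criteria.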

[6] = test system: barnyard grass; experiment: Test Example 4: herbicidal effect by soil treatment (Table 19, symbol H); format: in vivo, barnyard grass (Echinochloa crus-galli); settings: amount of applied herbicide 320 g/ha
Summary of the method: as §2

[7] = test system: wild oat; experiment: Test Example 4: herbicidal effect by soil treatment (Table 19, symbol I); format: in vivo, wild oat (Avena fatua); settings: amount of applied herbicide 320 g/ha
Summary of the method: as §2

[8] = test system: blackgrass; experiment: Test Example 4: herbicidal effect by soil treatment (Table 19, symbol J); format: in vivo, blackgrass (Alopecurus myosuroides); settings: amount of applied herbicide 320 g/ha
Summary of the method: as §2

[9] = test system: Italian ryegrass; experiment: Test Example 4: herbicidal effect by soil treatment (Table 19, symbol K); format: in vivo, Italian ryegrass (Lolium multiflorum); settings: amount of applied herbicide 320 g/ha
Summary of the method: as §2

[10] = test system: lambsquarters; experiment: Test Example 4: herbicidal effect by soil treatment (Table 19, symbol O); format: in vivo, lambsquarters (Chenopodium album); settings: amount of applied herbicide 320 g/ha
Summary of the method: as §2

[11] = test system: chickweed; experiment: Test Example 4: herbicidal effect by soil treatment (Table 19, symbol P); format: in vivo, common chickweed (Stellaria media); settings: amount of applied herbicide 320 g/ha
Summary of the method: as §2

[12] = test system: persian speedwell; experiment: Test Example 4: herbicidal effect by soil treatment (Table 19, symbol R); format: in vivo, Persian speedwell (Veronica persica); settings: amount of applied herbicide 320 g/ha
Summary of the method: as §2

[13] = test system: southern crabgrass; experiment: Test Example 5: herbicidal effect by foliage application, plastic box (Table 20, symbol F); format: in vivo, southern crabgrass (Digitaria ciliaris); settings: foliage application, 320 g/ha, three weeks after application
Summary of the method: (§3)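 Foliar spray test: emulsion formulation diluted in water to a set application rate, sprayed onto 14-day-old plants raised in diluvial soil at 25° C to 30° C under glass. Both herbicidal effect and crop effect rated visually three weeks later.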

[14] = test system: blackgrass; experiment: Test Example 5: herbicidal effect by foliage application, plastic box (Table 20, symbol J); format: in vivo, blackgrass (Alopecurus myosuroides); settings: foliage application, 320 g/ha, three weeks after application
Summary of the method: as §3

[15] = test system: Italian ryegrass; experiment: Test Example 5: herbicidal effect by foliage application, plastic box (Table 20, symbol K); format: in vivo, Italian ryegrass (Lolium multiflorum); settings: foliage application, 320 g/ha, three weeks after application
Summary of the method: as §3

[16] = test system: chickweed; experiment: Test Example 5: herbicidal effect by foliage application, plastic box (Table 20, symbol P); format: in vivo, common chickweed (Stellaria media); settings: foliage application, 320 g/ha, three weeks after application
Summary of the method: as §3

[17] = test system: persian speedwell; experiment: Test Example 5: herbicidal effect by foliage application, plastic box (Table 20, symbol R); format: in vivo, Persian speedwell (Veronica persica); settings: foliage application, 320 g/ha, three weeks after application
Summary of the method: as §3

SMILES | Herbicidal effect, B: Japanese bulrush [1] | Herbicidal effect, C: oval-leafed pondweed [2] | herbicidal effect rating, B: Japanese bulrush [3] | herbicidal effect on E: rice flat sedge [4] | herbicidal effect, F: southern crabgrass [5] | herbicidal effect, H: barnyard grass [6] | herbicidal effect, I: wild oat [7] | herbicidal effect, J: blackgrass [8] | herbicidal effect, K: Italian ryegrass [9] | herbicidal effect, O: lambsquarters [10] | herbicidal effect, P: chickweed [11] | herbicidal effect, R: persian speedwell [12] | F: southern crabgrass, herbicidal effect grade [13] | J: blackgrass, herbicidal effect grade [14] | K: Italian ryegrass, herbicidal effect grade [15] | P: chickweed, herbicidal effect grade [16] | R: persian speedwell, herbicidal effect grade [17]
CCCC(=O)Oc1c(C)nn(C)c(=O)c1-c1c(-c2ccccc2OC)sc2cc(F)ccc12 [3-004] | 3 (Herbicidal rate of 40% or more and less than 70%) | 3 (Herbicidal rate of 40% or more and less than 70%) | 2 (Herbicidal rate of 20% or more and less than 40%) | 5 (Herbicidal rate of 90% or more (almost completely withered)) | 4 (Herbicidal rate of 70% or more and less than 90%) | 4 (Herbicidal rate of 70% or more and less than 90%) | 3 (Herbicidal rate of 40% or more and less than 70%) | 4 (Herbicidal rate of 70% or more and less than 90%) | 5 (Herbicidal rate of 90% or more (almost completely withered)) | 5 (Herbicidal rate of 90% or more (almost completely withered)) | 5 (Herbicidal rate of 90% or more (almost completely withered)) | 4 (Herbicidal rate of 70% or more and less than 90%) | 3 (Herbicidal rate of 40% or more and less than 70%) | 5 (Herbicidal rate of 90% or more (almost completely withered)) | 5 (Herbicidal rate of 90% or more (almost completely withered)) | 5 (Herbicidal rate of 90% or more (almost completely withered)) | 5 (Herbicidal rate of 90% or more (almost completely withered))
COc1ccc(-c2sc3cc(F)ccc3c2-c2c(O)c(C)nn(C)c2=O)cc1 [3-005] | 4 (Herbicidal rate of 70% or more and less than 90%) | 4 (Herbicidal rate of 70% or more and less than 90%) | 3 (Herbicidal rate of 40% or more and less than 70%) | 5 (Herbicidal rate of 90% or more (almost completely withered)) | 0 (Herbicidal rate of 5% or less (almost no effect)) | 3 (Herbicidal rate of 40% or more and less than 70%) | 0 (Herbicidal rate of 5% or less (almost no effect)) | 0 (Herbicidal rate of 5% or less (almost no effect)) | 5 (Herbicidal rate of 90% or more (almost completely withered)) | 4 (Herbicidal rate of 70% or more and less than 90%) | 5 (Herbicidal rate of 90% or more (almost completely withered)) | 4 (Herbicidal rate of 70% or more and less than 90%) | 3 (Herbicidal rate of 40% or more and less than 70%) | 0 (Herbicidal rate of 5% or less (almost no effect)) | 3 (Herbicidal rate of 40% or more and less than 70%) | 5 (Herbicidal rate of 90% or more (almost completely withered)) | 5 (Herbicidal rate of 90% or more (almost completely withered))
CCCC(=O)Oc1c(C)nn(C)c(=O)c1-c1c(-c2ccccc2OCC)sc2cc(F)ccc12 [3-007] | 5 (Herbicidal rate of 90% or more (almost completely withered)) | 4 (Herbicidal rate of 70% or more and less than 90%) | 4 (Herbicidal rate of 70% or more and less than 90%) | 5 (Herbicidal rate of 90% or more (almost completely withered)) | 4 (Herbicidal rate of 70% or more and less than 90%) | 0 (Herbicidal rate of 5% or less (almost no effect)) | 2 (Herbicidal rate of 20% or more and less than 40%) | 3 (Herbicidal rate of 40% or more and less than 70%) | 4 (Herbicidal rate of 70% or more and less than 90%) | 0 (Herbicidal rate of 5% or less (almost no effect)) | 5 (Herbicidal rate of 90% or more (almost completely withered)) | 4 (Herbicidal rate of 70% or more and less than 90%) | 5 (Herbicidal rate of 90% or more (almost completely withered)) | 5 (Herbicidal rate of 90% or more (almost completely withered)) | 5 (Herbicidal rate of 90% or more (almost completely withered)) | 5 (Herbicidal rate of 90% or more (almost completely withered)) | 5 (Herbicidal rate of 90% or more (almost completely withered))
COc1ccccc1-c1sc2cc(F)ccc2c1-c1c(OC(=O)c2ccco2)c(C)nn(C)c1=O [3-023] | 3 (Herbicidal rate of 40% or more and less than 70%) | 4 (Herbicidal rate of 70% or more and less than 90%) | 2 (Herbicidal rate of 20% or more and less than 40%) | 5 (Herbicidal rate of 90% or more (almost completely withered)) | 3 (Herbicidal rate of 40% or more and less than 70%) | 4 (Herbicidal rate of 70% or more and less than 90%) | 0 (Herbicidal rate of 5% or less (almost no effect)) | 4 (Herbicidal rate of 70% or more and less than 90%) | 5 (Herbicidal rate of 90% or more (almost completely withered)) | 2 (Herbicidal rate of 20% or more and less than 40%) | 4 (Herbicidal rate of 70% or more and less than 90%) | 4 (Herbicidal rate of 70% or more and less than 90%) | 3 (Herbicidal rate of 40% or more and less than 70%) | 5 (Herbicidal rate of 90% or more (almost completely withered)) | 5 (Herbicidal rate of 90% or more (almost completely withered)) | 5 (Herbicidal rate of 90% or more (almost completely withered)) | 3 (Herbicidal rate of 40% or more and less than 70%)
